Data as given in patent publication US4699924A, “Skin treatment composition” (priority 1983, dated 1987).
Where two headings read alike, the source gives them in different places.

Assays:
physchem = details: octanol/water
[1] = as recorded in Handbook of Chemistry & Physics, 57th Edition 1976-77; cited from earlier work
[2] = Dielectric constant of oils measured in a liquid state; format: physicochemical
Source text: The product can also optionally comprise an oil, fat or wax, herein referred to as "oil" having a dielectric constant of not greater than 3.0.
Examples of preferred "oils", when employed, together with their dielectric constants measured when they are in a liquid state are given below: […]

[3] = test system: guinea pig stratum corneum; assay: Delivery of C14 labelled phenol to guinea pig stratum corneum; details: in words
Procedure: The phenol used in the preparation of each emulsion was C^14 labelled phenol.
Pieces of guinea pig stratum corneum were immersed in each of the above emulsions for 20 hours, after which they were removed, blotted dry and the amount of phenol retained by the corneum was measured by a radio tracer technique using a standard methodology.

[4] = test system: guinea pig foot pad stratum corneum; assay: Increase in extensibility of guinea pig foot pad stratum corneum; design: Increase in stratum corneum extensibility: unit not given here; details: for Increase in stratum corneum extensibility: 0.2 M 2-hydroxyoctanoic acid + additive at 5% w/w, 3 hours at 20° C., relative humidity 65%
Procedure: The ability of an additive to enhance the delivery to skin of 2-hydroxyoctanoic acid was measured in terms of the increase in extensibility of guinea pig foot pad stratum corneum following contact with each solution.
In this experiment, pieces of guinea pig foot pad stratum corneum, equilibrated at a relative humidity of 65%, were immersed in each solution for 3 hours at 20° C., and then removed, blotted dry and re-equilibrated at the same relative humidity. The extensibility of each piece of guinea pig foot pad stratum corneum was measured before and after this treatment in an extensiometer according to the method described in European Pat. No. 7785.

[5] = Cloud point temperature of a 0.025M aqueous solution of polyoxyethylene(8)nonylphenyl ether with 5% by weight additive; format: physicochemical; details: for Elevation of cloud point temperature: in °C
Procedure: An activity enhancer is accordingly defined as a non-electrolyte which is capable, at a concentration of 5% by weight of increasing the cloud point temperature of a 0.025M aqueous solution of polyoxyethylene(8)nonylphenyl ether by at least 10° C. Preferably the activity enhancer is one which is capable of increasing the cloud point temperature by at least 15° C., most preferably by at least 20° C.
It should be explained that the "cloud point" is a measure of the inverse solubility of a nonionic surfactant with temperature and can be determined by heating a standard clear aqueous solution of the nonionic surfactant until the solution becomes visibly cloudy and then measuring the temperature.
The cloud point temperature can conveniently be determined automatically using the equipment and method described by Baum et al in Mat. Res. Std. 4 26 (1964).
Examples of suitable compounds functioning as activity enhancers, together with the respective elevated cloud point temperature obtained in each case when using the standard test defined hereinbefore are listed below in Table 1.

With `CCCCCCC(=O)C(=O)O` [2-ketooctanoic acid] the logP (physchem) was 3.2.
In the case of `CCCCCCCCCCCC` [n-dodecane], the Dielectric constant [1] is given as 2.02.
`CCCCCCCCCCCCCCCCCC` [n-octadecane] gave a Dielectric constant [2] of less than 3.0.
With `Oc1ccccc1` [phenol] the “Amount of phenol delivered to the skin relative to ordinary emulsion (Control)” value [3] was “enhanced when a gel phase is present”.
`COC1=CC=C2[C@H]3Cc4ccc(OC)c5c4[C@@]2(CCN3C)[C@H]1O5` [thebaine] gave a logP (physchem) of 1.91.
For `CCCCC/C=C\C/C=C\CCCCCCCC(=O)O` [linoleic acid], the Dielectric constant [1] is listed as 2.71.
`CCCCCCCCCCCCCC` [n-tetradecane] showed a Dielectric constant [2] of less than 3.0.
`COc1ccc2c3c1O[C@H]1[C@@H](O)C=C[C@H]4[C@@H](C2)N(C)CC[C@@]341` [codeine, reference compound] gave a logP (physchem) of 1.01.
For `CCCCCCCCCC` [n-decane], the Dielectric constant [1] is given as 1.99.
`CCCCCCCCO` [Octanol] showed a Dielectric constant [2] of 10.3.
Compound `COc1cc(NS(=O)(=O)c2ccc(N)cc2)ncn1` [sulphamonomethoxine, reference compound] has a logP (physchem) of 0.85.
For `CCCCCCCCCCCCCCCC` [n-hexadecane], the Dielectric constant [2] was less than 3.0.
For `Nc1ncnc2c1ncn2[C@@H]1O[C@H](COP(=O)(O)OP(=O)(O)OP(=O)(O)O)[C@@H](O)[C@H]1O` [adenosine triphosphate], the logP (physchem) was 1.64.
`Nc1ccc(S(=O)(=O)Nc2ccnn2-c2ccccc2)cc1` [sulphaphenzole, reference compound] gave a logP (physchem) of 1.57.
Work on `CN1C(=O)NC(=O)C(C)(C)C1=O` [5,5-dimethyl, 1-methyl barbituric acid] yielded a logP (physchem) of 1.09.
Work on `Nc1ncnc2c1ncn2[C@@H]1O[C@H](COP(=O)(O)OP(=O)(O)O)[C@@H](O)[C@H]1O` [adenosine diphosphate] yielded a logP (physchem) of 0.89.
In the case of `CCCCCCCC/C=C\CCCCCCCC(=O)O` [oleic acid], the Dielectric constant [1] is given as 2.46.
For `CCCCCCC(O)C(=O)O` (stereo not shown) [2-hydroxyoctanoic acid], the “Increase in stratum corneum extensibility” value [4] was 5, the “Increase in stratum corneum extensibility / delivery to skin, in words” value ([4]; conclusion in words) was “greatly enhanced” and the logP (physchem) was 2.24.
With `CC(O)C(=O)O` (stereo not shown) [2-hydroxypropionic acid] the Cloud point temperature ([5]; Table 1, activity enhancer 5% by weight, 0.025 M polyoxyethylene(8)nonylphenyl ether) was 45.0 °C, the “Elevation of cloud point temperature” value ([5]; Table 1, activity enhancer 5% by weight, control 33.5 °C.) was 11.5 and the “Elevation of cloud point temperature” value ([5]; table of extensibility results, additive at 5% w/w) was 11.5. For the same compound, the “Increase in stratum corneum extensibility” value [4] was 17.1.
In the case of `O=Cc1ccccc1O` [O--hydroxybenzaldehyde], the logP (physchem) is reported as 1.7.
